The source made the active and inactive calls. The rule behind the calls is not given here.
Tested on: rodent lifetime carcinogenesis bioassay, tumor incidence TD50
Assay: chronic cancer bioassays in animals – CPDB, compiled studies (AID 1745844)

Cn1cc(C(=O)[C@@H]2CCc3nc[nH]c3C2)c2ccccc21
carcinogen call (mouse, strain B6C3F1, females, by gavage, site: liver, lesion: hepatocellular adenoma, dosed 104 weeks, study length 104 weeks): negative (inactive)
TD50 (mouse, strain B6C3F1, females, by gavage, site: liver, lesion: hepatocellular carcinoma, dosed 104 weeks, study length 104 weeks): 1040 mg/kg/day (inactive)
carcinogen call (mouse, strain B6C3F1, females, by gavage, site: lung, lesion: adenoma, dosed 104 weeks, study length 104 weeks): negative (inactive)
carcinogen call (mouse, strain B6C3F1, females, by gavage, site: lung, lesion: carcinoma, dosed 104 weeks, study length 104 weeks): negative (inactive)
carcinogen call (mouse, strain B6C3F1, males, by gavage, site: liver, lesion: hepatocellular adenoma, dosed 104 weeks, study length 104 weeks): negative (inactive)
carcinogen call (mouse, strain B6C3F1, males, by gavage, site: liver, lesion: hepatocellular carcinoma, dosed 104 weeks, study length 104 weeks): negative (inactive)
carcinogen call (mouse, strain B6C3F1, males, by gavage, site: lung, lesion: adenoma, dosed 104 weeks, study length 104 weeks): negative (inactive)
carcinogen call (mouse, strain B6C3F1, males, by gavage, site: lung, lesion: carcinoma, dosed 104 weeks, study length 104 weeks): negative (inactive)
carcinogen call (rat, strain Fischer 344, females, by gavage, site: liver, lesion: hepatocellular adenoma, dosed 104 weeks, study length 104 weeks): negative (inactive)
carcinogen call (rat, strain Fischer 344, males, by gavage, site: liver, lesion: hepatocellular adenoma, dosed 104 weeks, study length 104 weeks): negative (inactive)

C=C(C)C(=O)Nc1ccc(Cl)c(Cl)c1
carcinogen call (mouse, strain B6AKF1, females, oral dosing, site: any site (literature study), lesion: several types, types named in the paper, dosed 76 weeks, study length 76 weeks): negative (inactive)
carcinogen call (mouse, strain B6AKF1, females, oral dosing, site: liver, lesion: hepatoma, dosed 76 weeks, study length 76 weeks): negative (inactive)
carcinogen call (mouse, strain B6AKF1, females, oral dosing, site: lung, lesion: adenoma, dosed 76 weeks, study length 76 weeks): negative (inactive)
TD50 (mouse, strain B6AKF1, males, oral dosing, site: any site (literature study), lesion: several types, types named in the paper, dosed 76 weeks, study length 76 weeks): 49.1 mg/kg/day (inactive)
TD50 (mouse, strain B6AKF1, males, oral dosing, site: liver, lesion: hepatoma, dosed 76 weeks, study length 76 weeks): 27.1 mg/kg/day (inactive)
carcinogen call (mouse, strain B6AKF1, males, oral dosing, site: lung, lesion: adenoma, dosed 76 weeks, study length 76 weeks): negative (inactive)
carcinogen call (mouse, strain B6C3F1, females, oral dosing, site: any site (literature study), lesion: one or several types, types not named, dosed 76 weeks, study length 76 weeks): negative (inactive)
carcinogen call (mouse, strain B6C3F1, females, oral dosing, site: liver, lesion: hepatoma, dosed 76 weeks, study length 76 weeks): negative (inactive)
carcinogen call (mouse, strain B6C3F1, females, oral dosing, site: lung, lesion: several types, types named in the paper, dosed 76 weeks, study length 76 weeks): negative (inactive)
TD50 (mouse, strain B6C3F1, males, oral dosing, site: any site (literature study), lesion: several types, types named in the paper, dosed 76 weeks, study length 76 weeks): 5.39 mg/kg/day (inactive)
TD50 (mouse, strain B6C3F1, males, oral dosing, site: liver, lesion: hepatoma, dosed 76 weeks, study length 76 weeks): 15.2 mg/kg/day (inactive)
TD50 (mouse, strain B6C3F1, males, oral dosing, site: lung, lesion: adenoma, dosed 76 weeks, study length 76 weeks): 23.7 mg/kg/day (inactive)

ClC1(Cl)C2(Cl)C3C4(Cl)C1(Cl)C1(Cl)C4(Cl)C(Cl)(Cl)C3(Cl)C21Cl (stereo unspecified)
TD50 (rat, strain Sprague-Dawley, males, in feed, site: liver, lesion: neoplastic nodule, dosed 91 weeks, study length 91 weeks): 6.68 mg/kg/day
TD50 (rat, strain Sprague-Dawley, males, in feed, site: thyroid gland, lesion: adenoma, dosed 91 weeks, study length 91 weeks): 1.46 mg/kg/day

Cc1ccc(/C(=C\CN2CCCC2)c2ccccn2)cc1
carcinogen call (mouse, strain B6C3F1, females, in feed, site: any site (literature study), lesion: benign tumor, dosed 104 weeks, study length 105 weeks): negative (inactive)
carcinogen call (mouse, strain B6C3F1, females, in feed, site: any site (literature study), lesion: malignant tumor, dosed 104 weeks, study length 105 weeks): negative (inactive)
carcinogen call (mouse, strain B6C3F1, females, in feed, site: any site (literature study), lesion: several types, types named in the paper, dosed 104 weeks, study length 105 weeks): negative (inactive)
carcinogen call (mouse, strain B6C3F1, females, in feed, site: liver, lesion: hepatocellular adenoma, dosed 104 weeks, study length 105 weeks): negative (inactive)
carcinogen call (mouse, strain B6C3F1, females, in feed, site: liver, lesion: hepatocellular carcinoma, dosed 104 weeks, study length 105 weeks): negative (inactive)
carcinogen call (mouse, strain B6C3F1, females, in feed, site: liver, lesion: several types, types named in the paper, dosed 104 weeks, study length 105 weeks): negative (inactive)
carcinogen call (mouse, strain B6C3F1, females, in feed, site: lung, lesion: several types, types named in the paper, dosed 104 weeks, study length 105 weeks): negative (inactive)
carcinogen call (mouse, strain B6C3F1, males, in feed, site: any site (literature study), lesion: benign tumor, dosed 104 weeks, study length 105 weeks): negative (inactive)
carcinogen call (mouse, strain B6C3F1, males, in feed, site: any site (literature study), lesion: malignant tumor, dosed 104 weeks, study length 105 weeks): negative (inactive)
carcinogen call (mouse, strain B6C3F1, males, in feed, site: any site (literature study), lesion: several types, types named in the paper, dosed 104 weeks, study length 105 weeks): negative (inactive)
TD50 (mouse, strain B6C3F1, males, in feed, site: liver, lesion: hepatocellular adenoma, dosed 104 weeks, study length 105 weeks): 2330 mg/kg/day (inactive)
carcinogen call (mouse, strain B6C3F1, males, in feed, site: liver, lesion: hepatocellular carcinoma, dosed 104 weeks, study length 105 weeks): negative (inactive)
TD50 (mouse, strain B6C3F1, males, in feed, site: liver, lesion: several types, types named in the paper, dosed 104 weeks, study length 105 weeks): 2750 mg/kg/day (inactive)
carcinogen call (mouse, strain B6C3F1, males, in feed, site: lung, lesion: several types, types named in the paper, dosed 104 weeks, study length 105 weeks): negative (inactive)
carcinogen call (rat, strain Fischer 344, females, in feed, site: any site (literature study), lesion: benign tumor, dosed 103 weeks, study length 104 weeks): negative (inactive)
carcinogen call (rat, strain Fischer 344, females, in feed, site: any site (literature study), lesion: malignant tumor, dosed 103 weeks, study length 104 weeks): negative (inactive)
carcinogen call (rat, strain Fischer 344, females, in feed, site: any site (literature study), lesion: several types, types named in the paper, dosed 103 weeks, study length 104 weeks): negative (inactive)
carcinogen call (rat, strain Fischer 344, females, in feed, site: liver, lesion: hepatocellular adenoma, dosed 103 weeks, study length 104 weeks): negative (inactive)
carcinogen call (rat, strain Fischer 344, females, in feed, site: liver, lesion: hepatocellular carcinoma, dosed 103 weeks, study length 104 weeks): negative (inactive)
TD50 (rat, strain Fischer 344, males, in feed, site: any site (literature study), lesion: benign tumor, dosed 103 weeks, study length 104 weeks): 1170 mg/kg/day (inactive)
carcinogen call (rat, strain Fischer 344, males, in feed, site: any site (literature study), lesion: malignant tumor, dosed 103 weeks, study length 104 weeks): negative (inactive)
carcinogen call (rat, strain Fischer 344, males, in feed, site: any site (literature study), lesion: several types, types named in the paper, dosed 103 weeks, study length 104 weeks): negative (inactive)
carcinogen call (rat, strain Fischer 344, males, in feed, site: liver, lesion: hepatocellular adenoma, dosed 103 weeks, study length 104 weeks): negative (inactive)
carcinogen call (rat, strain Fischer 344, males, in feed, site: liver, lesion: hepatocellular carcinoma, dosed 103 weeks, study length 104 weeks): negative (inactive)

C=CCNNCC=C
carcinogen call (mouse, strain Swiss albino, females, in drinking water, site: liver, lesion: angioma, dosed 83 weeks, study length 83 weeks): negative (inactive)
carcinogen call (mouse, strain Swiss albino, females, in drinking water, site: liver, lesion: angiosarcoma, dosed 83 weeks, study length 83 weeks): negative (inactive)
TD50 (mouse, strain Swiss albino, females, in drinking water, site: liver, lesion: hepatoma, dosed 83 weeks, study length 83 weeks): 409 mg/kg/day (inactive)
TD50 (mouse, strain Swiss albino, females, in drinking water, site: lung, lesion: adenocarcinoma, dosed 83 weeks, study length 83 weeks): 78.3 mg/kg/day
TD50 (mouse, strain Swiss albino, females, in drinking water, site: lung, lesion: adenoma, dosed 83 weeks, study length 83 weeks): 47.9 mg/kg/day
TD50 (mouse, strain Swiss albino, females, in drinking water, site: lung, lesion: several types, types named in the paper, dosed 83 weeks, study length 83 weeks): 33.8 mg/kg/day
carcinogen call (mouse, strain Swiss albino, males, in drinking water, site: liver, lesion: angioma, dosed 82 weeks, study length 82 weeks): negative (inactive)
TD50 (mouse, strain Swiss albino, males, in drinking water, site: lung, lesion: adenocarcinoma, dosed 82 weeks, study length 82 weeks): 60 mg/kg/day
TD50 (mouse, strain Swiss albino, males, in drinking water, site: lung, lesion: adenoma, dosed 82 weeks, study length 82 weeks): 35.4 mg/kg/day
TD50 (mouse, strain Swiss albino, males, in drinking water, site: lung, lesion: several types, types named in the paper, dosed 82 weeks, study length 82 weeks): 33.9 mg/kg/day

Cc1ccc(C)c(C)c1
TD50 (rat, strain Sprague-Dawley, females, by gavage, site: any site (literature study), lesion: malignant tumor, dosed 104 weeks, study length 123 weeks): 14300 mg/kg/day
TD50 (rat, strain Sprague-Dawley, males, by gavage, site: Zymbal's gland, lesion: carcinoma, dosed 104 weeks, study length 123 weeks): 18000 mg/kg/day
TD50 (rat, strain Sprague-Dawley, males, by gavage, site: any site (literature study), lesion: malignant tumor, dosed 104 weeks, study length 123 weeks): 13900 mg/kg/day
TD50 (rat, strain Sprague-Dawley, males, by gavage, site: any site (literature study), lesion: several types, types named in the paper, dosed 104 weeks, study length 123 weeks): 1940 mg/kg/day
TD50 (rat, strain Sprague-Dawley, males, by gavage, site: ear duct, lesion: carcinoma, dosed 104 weeks, study length 123 weeks): 18300 mg/kg/day
TD50 (rat, strain Sprague-Dawley, males, by gavage, site: head, lesion: carcinoma, dosed 104 weeks, study length 123 weeks): 4350 mg/kg/day
TD50 (rat, strain Sprague-Dawley, males, by gavage, site: nasal cavity, lesion: esthesioneuroepithelioma, dosed 104 weeks, study length 123 weeks): 18300 mg/kg/day
TD50 (rat, strain Sprague-Dawley, males, by gavage, site: oral cavity, lesion: carcinoma, dosed 104 weeks, study length 123 weeks): 18300 mg/kg/day

Reference: PubChem BioAssay AID1745844 (Carcinogenic Potency Database (CPDB), 2022)
